target: purified human MMP-12 enzyme (Homo sapiens, UniProt P39900); assay: MMP-12 FRET assay; type: biochemical; conditions: substrate 20 μM, room temperature
Procedure: Compounds according to the present teachings were tested in an MMP-12 FRET assay as follows. To each well of black polystyrene 96-well plate was added assay buffer (50 mM HEPES (pH 7.4), 100 mM NaCl, 5 mM CaCl2 and 0.005% Brij-35 (Polyoxyethyleneglycol dodecyl ether, Pierce cat#20150), purified human MMP-12 enzyme, and varied concentrations of test compounds (prepared by serial dilution of a stock solution in 100% DMSO). The plates were incubated at room temperature for 30 minutes. The enzymatic reactions were initiated by addition of a substrate, MCA-Pro-Leu-Gly-Leu-Dpa(DNP)-Ala-Arg, containing a fluorescent group (7-methoxycoumarin, MCA) and a 2,4-dinitrophenyl group (DNP), to a final concentration of 20 μM. The final DMSO concentration in the assay was 10%. The reaction was monitored for 30 minutes at room temperature and the initial rate of the cleavage reaction was determined using a fluorescence plate reader (λex: 325 nm, λem: 395 nm). Plots of the inhibitor concentration vs. the initial cleavage rate were fit to the following equation: y=Vmax*(1−(x^n/(K^n+x^n))), whereby x=inhibitor concentration, y=initial rate, Vmax=initial rate in the absence of inhibitor, n=slope factor, and K=IC50 for the inhibition curve.

Sequence of purified human MMP-12 enzyme (P39900 106-470): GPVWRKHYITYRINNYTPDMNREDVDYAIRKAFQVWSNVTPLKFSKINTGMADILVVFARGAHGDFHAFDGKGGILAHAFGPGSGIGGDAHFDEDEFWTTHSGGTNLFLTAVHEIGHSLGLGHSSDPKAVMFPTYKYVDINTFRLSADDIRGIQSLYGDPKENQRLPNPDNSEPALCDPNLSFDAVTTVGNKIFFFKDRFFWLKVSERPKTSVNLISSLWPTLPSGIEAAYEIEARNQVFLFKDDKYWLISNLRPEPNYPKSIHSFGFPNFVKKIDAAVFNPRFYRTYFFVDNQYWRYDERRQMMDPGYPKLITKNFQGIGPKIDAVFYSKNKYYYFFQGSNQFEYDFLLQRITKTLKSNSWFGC

| Compound | IC50 [nM] |
| --- | --- |
| CC(C)[C@H](NS(=O)(=O)c1ccc2c(c1)oc1ccc(-c3sccc3CN(C)C)cc12)C(=O)O [Compound 49, (S)-2-(8-(3-((dimethylamino)methyl)thiophen-2-yl)dibenzo[b,d]furan-3-sulfonamido)-3-methylbutanoic acid] | 228 |
| CC(C)[C@H](NS(=O)(=O)c1ccc2c(c1)oc1ccc(-c3ccc(C(C)N(C)C)s3)cc12)C(=O)O (stereo partly drawn) [Compound 50, (S)-2-(8-(5-(1-(dimethylamino)ethyl)thiophen-2-yl)dibenzo[b,d]furan-3-sulfonamido)-3-methylbutanoic acid] | 5.7 |
| CC(C)[C@H](NS(=O)(=O)c1ccc2c(c1)sc1c(-c3ccsc3Cl)cccc12)C(=O)O [Compound 51, (S)-2-(6-(2-chlorothiophen-3-yl)dibenzo[b,d]thiophene-3-sulfonamido)-3-methylbutanoic acid] | > 1000 |
| CC(C)[C@H](NS(=O)(=O)c1ccc2c(c1)sc1ccc(-c3ccsc3Cl)cc12)C(=O)O [Compound 52, (S)-2-(8-(2-chlorothiophen-3-yl)dibenzo[b,d]thiophene-3-sulfonamido)-3-methylbutanoic acid] | 19 |
| CC(C)[C@H](NS(=O)(=O)c1ccc2c(c1)sc1ccc(-c3ccco3)cc12)C(=O)O [Compound 53, (S)-2-(8-(furan-2-yl)dibenzo[b,d]thiophene-3-sulfonamido)-3-methylbutanoic acid] | 43 |
| CC(C)[C@H](NS(=O)(=O)c1ccc2c(c1)sc1ccc(-c3ccc(-c4ccc(-c5ccc(Cl)nc5)nc4)nc3)cc12)C(=O)O [Compound 54, (S)-2-[8-(6″-Chloro-[2,3′;6′,3″]terpyridin-5-yl)-dibenzothiophene-3-sulfonylamino]-3-methyl-butanoic acid] | 483 |
| COc1ccc(-c2ccc3sc4cc(S(=O)(=O)N[C@H](C(=O)O)C(C)C)ccc4c3c2)cn1 [Compound 55, (S)-2-(8-(6-methoxypyridin-3-yl)dibenzo[b,d]thiophene-3-sulfonamido)-3-methylbutanoic acid] | 65 |
| CC(C)[C@H](NS(=O)(=O)c1ccc2c(c1)sc1ccc(-c3ccncc3)cc12)C(=O)O [Compound 56, (S)-3-methyl-2-(8-(pyridin-4-yl)dibenzo[b,d]thiophene-3-sulfonamido)butanoic acid] | 8.4 |
| CC(C)[C@H](NS(=O)(=O)c1ccc2c(c1)sc1ccc(-c3ccc[nH]3)cc12)C(=O)O [Compound 57, (S)-2-(8-(1H-pyrrol-2-yl)dibenzo[b,d]thiophene-3-sulfonamido)-3-methylbutanoic acid] | 21 |
| CC(C)[C@H](NS(=O)(=O)c1ccc2c(c1)sc1ccc(/C=C/C3CCCCC3)cc12)C(=O)O [Compound 58, (S,E)-2-(8-(2-cyclohexylvinyl)dibenzo[b,d]thiophene-3-sulfonamido)-3-methylbutanoic acid] | 18 |
| CC(C)[C@H](NS(=O)(=O)c1ccc2c(c1)oc1ccc(-c3ccc(-c4ccc(Cl)nc4)nc3)cc12)C(=O)O [Compound 59, (S)-2-(8-(6′-chloro-2,3′-bipyridin-5-yl)dibenzo[b,d]furan-3-sulfonamido)-3-methylbutanoic acid] | < 1.5 |
| CC(C)[C@H](NS(=O)(=O)c1ccc2c(c1)sc1cc(-c3ccoc3)ccc12)C(=O)O [Compound 60, (S)-2-(7-(furan-3-yl)dibenzo[b,d]thiophene-3-sulfonamido)-3-methylbutanoic acid] | < 1.5 |
| CC(C)[C@H](NS(=O)(=O)c1ccc2c(c1)sc1ccc(-c3ccc(-c4ccc(Cl)nc4)nc3)cc12)C(=O)O [Compound 61, (S)-2-(8-(6′-chloro-2,3′-bipyridin-5-yl)dibenzo[b,d]thiophene-3-sulfonamido)-3-methylbutanoic acid] | 276 |
| Cc1csc(-c2ccc3sc4cc(S(=O)(=O)N[C@H](C(=O)O)C(C)C)ccc4c3c2)c1 [Compound 62, (S)-3-methyl-2-(8-(4-methylthiophen-2-yl)dibenzo[b,d]thiophene-3-sulfonamido)butanoic acid] | 44 |
| CC(C)[C@H](NS(=O)(=O)c1ccc2c(c1)sc1ccc(-c3ccc(Cl)nc3)cc12)C(=O)O [Compound 63, (S)-2-(8-(6-chloropyridin-3-yl)dibenzo[b,d]thiophene-3-sulfonamido)-3-methylbutanoic acid] | 33 |
| CC(C)[C@H](NS(=O)(=O)c1ccc2c(c1)oc1ccc(-c3ccc(Cl)nc3)cc12)C(=O)O [Compound 64, (S)-2-(8-(6-chloropyridin-3-yl)dibenzo[b,d]furan-3-sulfonamido)-3-methylbutanoic acid] | < 1.5 |
| COCC#Cc1ccc2c(c1)sc1cc(S(=O)(=O)N[C@H](C(=O)O)C(C)C)ccc12 [Compound 65, (S)-2-(7-(3-methoxyprop-1-ynyl)dibenzo[b,d]thiophene-3-sulfonamido)-3-methylbutanoic acid] | 4.6 |

| Compound | IC50 [nM] |
| --- | --- |
| C/C=C/c1ccc2oc3cc(S(=O)(=O)N[C@H](C(=O)O)C(C)C)ccc3c2c1 [Compound 66, (S,E)-3-methyl-2-(8-(prop-1-enyl)dibenzo[b,d]furan-3-sulfonamido)butanoic acid] | < 1.5 |
| C/C=C\c1ccc2oc3cc(S(=O)(=O)N[C@H](C(=O)O)C(C)C)ccc3c2c1 [Compound 67, (S,Z)-3-methyl-2-(8-(prop-1-enyl)dibenzo[b,d]furan-3-sulfonamido)butanoic acid] | < 1.5 |
| CC(C)[C@H](NS(=O)(=O)c1ccc2c(c1)oc1ccc(C3=CCNCC3)cc12)C(=O)O [Compound 70, (S)-3-methyl-2-(8-(1,2,3,6-tetrahydropyridin-4-yl)dibenzo[b,d]furan-3-sulfonamido)butanoic acid] | 5.4 |
| CC(C)[C@H](NS(=O)(=O)c1ccc2c(c1)oc1ccc(C3CCCC3)cc12)C(=O)O [Compound 71, (S)-2-(8-cyclopentyldibenzo[b,d]furan-3-sulfonamido)-3-methylbutanoic acid] | < 1.5 |
| CC(C)[C@H](NS(=O)(=O)c1ccc2c(c1)oc1ccc(-c3ccc(Cl)s3)cc12)C(=O)O [Compound 74, (S)-2-(8-(5-chlorothiophen-2-yl)dibenzo[b,d]furan-3-sulfonamido)-3-methylbutanoic acid] | < 1.5 |
| CC(C)[C@H](NS(=O)(=O)c1ccc2c(c1)oc1ccc(-c3sc(Cl)cc3Cl)cc12)C(=O)O [Compound 75, (S)-2-(8-(3,5-dichlorothiophen-2-yl)dibenzo[b,d]furan-3-sulfonamido)-3-methylbutanoic acid] | < 1.5 |
| CC(C)NC(=N)c1ccc2oc3cc(S(=O)(=O)N[C@H](C(=O)O)C(C)C)ccc3c2c1 [Compound 76, (S)-2-(8-(N-isopropylcarbamimidoyl)dibenzo[b,d]furan-3-sulfonamido)-3-methylbutanoic acid] | 18 |
| CC(C)[C@H](NS(=O)(=O)c1ccc2c(c1)oc1ccc(C3=NCCN3)cc12)C(=O)O [Compound 77, (S)-2-(8-(4,5-dihydro-1H-imidazol-2-yl)dibenzo[b,d]furan-3-sulfonamido)-3-methylbutanoic acid] | 23 |
| CC(C)[C@H](NS(=O)(=O)c1ccc2c(c1)oc1cc(-c3ccco3)ccc12)C(=O)O [Compound 78, (S)-2-(7-(furan-2-yl)dibenzo[b,d]furan-3-sulfonamido)-3-methylbutanoic acid] | < 1.5 |
| CC(C)[C@H](NS(=O)(=O)c1ccc2c(c1)oc1cc(-c3ccoc3)ccc12)C(=O)O [Compound 79, (S)-2-(7-(furan-3-yl)dibenzo[b,d]furan-3-sulfonamido)-3-methylbutanoic acid] | < 1.5 |
| CC(C)[C@H](NS(=O)(=O)c1ccc2c(c1)oc1cc(-c3ccc(Cl)o3)ccc12)C(=O)O [Compound 80, (S)-2-(7-(5-chlorofuran-2-yl)dibenzo[b,d]furan-3-sulfonamido)-3-methylbutanoic acid] | < 1.5 |
| CC(C)[C@H](NS(=O)(=O)c1ccc2c(c1)oc1cc(-c3cccs3)ccc12)C(=O)O [Compound 81, (S)-3-methyl-2-(7-(thiophen-2-yl)dibenzo[b,d]furan-3-sulfonamido)butanoic acid] | < 1.5 |
| CC(C)[C@H](NS(=O)(=O)c1ccc2c(c1)oc1ccc(C(=N)NO)cc12)C(=O)O [Compound 82, (S)-2-(8-(N-hydroxycarbamimidoyl)dibenzo[b,d]furan-3-sulfonamido)-3-methylbutanoic acid] | 1.8 |
| CC(C)[C@H](NS(=O)(=O)c1ccc2c(c1)oc1ccc(C3=NCCO3)cc12)C(=O)O [Compound 83, (S)-2-(8-(4,5-dihydrooxazol-2-yl)dibenzo[b,d]furan-3-sulfonamido)-3-methylbutanoic acid] | 2.8 |
| CC(C)[C@H](NS(=O)(=O)c1ccc2c(c1)oc1cc(-c3ccc(Cl)s3)ccc12)C(=O)O [Compound 84, (S)-2-(7-(5-chlorothiophen-2-yl)dibenzo[b,d]furan-3-sulfonamido)-3-methylbutanoic acid] | < 1.5 |
| CC(C)[C@H](NS(=O)(=O)c1ccc2c(c1)oc1cc(-c3sc(Cl)cc3Cl)ccc12)C(=O)O [Compound 85, (S)-2-(7-(3,5-dichlorothiophen-2-yl)dibenzo[b,d]furan-3-sulfonamido)-3-methylbutanoic acid] | < 1.5 |
| CC(C)[C@H](NS(=O)(=O)c1ccc2c(c1)oc1cc(-c3sc(Cl)c(Cl)c3Cl)ccc12)C(=O)O [Compound 86, (S)-3-methyl-2-(7-(3,4,5-trichlorothiophen-2-yl)dibenzo[b,d]furan-3-sulfonamido)butanoic acid] | < 1.5 |
